Read-outs that look alike come from different tables or passages of the source.
Tests used:
[1] = biological target: GDP-bound KRAS wild-type protein (Homo sapiens, UniProt P01116); assay: Binding to KRAS by surface plasmon resonance (SPR), dissociation constant KD
Summary of the method: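 Recombinant RAS proteins bearing a biotinylated Avi tag and loaded with GDP served as the captured ligand, recaptured fresh every cycle. Binding responses were referenced to an uncoated surface and a buffer-only blank cycle. Dissociation constants were obtained by 1:1 model fitting at 30°C.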

[2] = biological target: GDP-bound NRAS wild-type protein (Homo sapiens, UniProt P01111); assay: Binding to NRAS by surface plasmon resonance (SPR), KD and KD ratio to KRAS
Sequence of GDP-bound NRAS wild-type protein (P01111 whole entry): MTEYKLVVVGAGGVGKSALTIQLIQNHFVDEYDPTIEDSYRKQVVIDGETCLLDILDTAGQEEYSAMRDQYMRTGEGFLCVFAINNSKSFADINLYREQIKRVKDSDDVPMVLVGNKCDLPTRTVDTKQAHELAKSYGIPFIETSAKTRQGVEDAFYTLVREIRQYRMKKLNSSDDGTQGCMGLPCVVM
Summary of the method: (§1)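 Captured GDP-RAS (~100–300 RU) was exposed to increasing compound concentrations, 75 s per step, in running buffer with 10 µM GDP, 10 mM MgCl2 and 4% DMSO at pH 7.4.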

HRAS wild-type protein = HRAS wild-type protein (Homo sapiens, UniProt P01112); assay: Binding to HRAS by surface plasmon resonance (SPR), KD and KD ratio to KRAS
Sequence of HRAS wild-type protein (P01112 whole entry): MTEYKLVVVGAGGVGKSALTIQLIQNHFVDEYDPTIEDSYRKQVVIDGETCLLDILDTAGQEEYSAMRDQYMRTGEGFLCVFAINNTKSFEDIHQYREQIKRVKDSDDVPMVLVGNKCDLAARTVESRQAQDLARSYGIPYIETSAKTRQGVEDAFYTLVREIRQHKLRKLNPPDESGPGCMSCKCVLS
Summary of the method: as §1

[3] = tested on: human lung cancer strain NCI-H441; assay: NCI-H441 cell proliferation inhibitory activity (CellTiter-Glo, 4 days); format: cell-based; settings: read-out: NCl-H441 IC50
Summary of the method: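 Step one: dispense the test compound in serial DMSO dilutions. Step three: add the reagent and measure […].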

[4] = ratio of KD for GDP-bound NRAS wild-type protein to KD for KRAS
[5] = ratio of KD for HRAS wild-type protein to KD for KRAS

Sequence of GDP-bound KRAS wild-type protein (P01116 1-188 isoform P01116-2): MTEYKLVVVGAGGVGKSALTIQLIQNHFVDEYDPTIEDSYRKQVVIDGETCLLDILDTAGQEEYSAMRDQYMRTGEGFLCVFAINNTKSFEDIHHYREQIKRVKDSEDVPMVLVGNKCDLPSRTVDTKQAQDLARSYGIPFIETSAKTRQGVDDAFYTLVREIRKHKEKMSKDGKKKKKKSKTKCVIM

CCO[C@@H]1C[C@H]2C(=O)NC3(CCC3)C(=O)N(C)[C@@H](C(CC)CC)C(=O)N(C)[C@H](C(=O)N(C)C)CC(=O)N(C)[C@@H](CC3CCCC3)C(=O)N[C@@H]([C@@H](C)CC)C(=O)N(C)CC(=O)N(C)[C@H]3C/C=C\CCN(C3=O)[C@@H](CC3CCC(F)(F)CC3)C(=O)N(C)CC(=O)N[C@@H](CCc3cc(F)c(C(F)(F)F)c(F)c3)C(=O)N2C1 [PP1431]
Kd ([1]; Single Cycle Kinetics, 1:1 binding model): 0.57 nM
NRAS /KRAS ([2]; ratio of KD with respect to GDP-bound NRAS wild-type protein to KD with respect to KRAS): AA (a compound having 20 or more is denoted as AA)
HRAS /KRAS (HRAS wild-type protein; ratio of KD with respect to HRAS wild-type protein to KD with respect to KRAS): A (a compound having 10 or more and less than 20 is denoted as A)
IC50 ([3]; 50% proliferation inhibitory concentration, four days): 41.2 nM

CCCOC[C@H]1C(=O)N[C@@H]([C@@H](C)CC)C(=O)N(C2CC2)CC(=O)N(C)[C@H]2C/C=C\CCN(C2=O)[C@@H](CC2CCC(F)(F)CC2)C(=O)N(C)CC(=O)N[C@@H](CCc2ccc(C(F)(F)F)c(OC)c2)C(=O)N2C[C@@H](C)C[C@H]2C(=O)N(C)C2(CCC2)C(=O)N(C)[C@@H](C2CCCC2)C(=O)N(C)[C@H](C(=O)N(C)C)CC(=O)N1C [PP2379]
Kd ([1]; 1:1 binding model): 0.76 nM
NRAS /KRAS [2, 4]: A (a compound having 10 or more and less than 20 is denoted as A)
HRAS /KRAS (HRAS wild-type protein; [5]): A (a compound having 10 or more and less than 20 is denoted as A)
IC50 ([3]; NCI-H441 cells, 4 days): 2.2 nM

C#CC[C@H]1C(=O)N[C@@H]([C@@H](C)CC)C(=O)N2CCC[C@H]2C(=O)N(C)[C@H]2C/C=C\CCN(C2=O)[C@@H](Cc2ccc(C(F)(F)F)cc2)C(=O)N(C)CC(=O)N[C@@H](CCc2ccc(C(F)(F)F)c(Cl)c2)C(=O)N2C[C@H](OCC)C[C@H]2C(=O)N(C)C2(CCC2)C(=O)N(C)[C@@H](C2CCCC2)C(=O)N(C)[C@H](C(=O)N(C)C)CC(=O)N1C [PP3254]
Kd ([1]; Single Cycle Kinetics): 0.086 nM
NRAS /KRAS [2, 4]: A (a compound having 10 or more and less than 20 is denoted as A)
HRAS /KRAS (HRAS wild-type protein; [5]): B (a compound having 3 or more and less than 10 is denoted as B)
IC50 ([3]; NCI-H441 cells, 4 days): 3.6 nM

CCC[C@H]1C(=O)N[C@@H]([C@@H](C)CC)C(=O)N(C)CC(=O)N(C)[C@H]2C/C=C\CCN(C2=O)[C@@H](Cc2ccc(C)cc2)C(=O)N(C)CC(=O)N[C@@H](CCc2ccc(C(F)(F)F)c(OC)c2)C(=O)N2CC3(CC3)C[C@H]2C(=O)N(C)C2(CCC2)C(=O)N(C)[C@@H](C(CC)CC)C(=O)N(C)[C@H](C(=O)N(C)C)CC(=O)N1C [PP3292]
Kd ([1]; Single Cycle Kinetics): 0.13 nM
NRAS /KRAS [2, 4]: A (a compound having 10 or more and less than 20 is denoted as A)
HRAS /KRAS (HRAS wild-type protein; [5]): A (a compound having 10 or more and less than 20 is denoted as A)
IC50 ([3]; NCI-H441 cells, 4 days): 5.4 nM

CCCO[C@@H]1C[C@H]2C(=O)NC3(CC(C)(C)C3)C(=O)N(C)[C@@H](C3CCCC3)C(=O)N(C)[C@H](C(=O)N(C)CC)CC(=O)N(C)[C@@H](COCC)C(=O)N[C@@H]([C@@H](C)CC)C(=O)N3C[C@@H](C)C[C@H]3C(=O)N(C)[C@H]3C/C=C\CCN(C3=O)[C@@H](Cc3ccc(C)cc3)C(=O)N(C)CC(=O)N[C@@H](CCc3ccc(C(F)(F)F)c(OC)c3)C(=O)N2C1 [PP3468]
Kd ([1]; Single Cycle Kinetics): 3.4 nM
NRAS /KRAS [2, 4]: B (a compound having 3 or more and less than 10 is denoted as B)
HRAS /KRAS (HRAS wild-type protein; [5]): A (a compound having 10 or more and less than 20 is denoted as A)
IC50 ([3]; NCI-H441 cells, 4 days): 137 nM

CCC[C@H]1C(=O)N[C@@H]([C@@H](C)CC)C(=O)N2CCC[C@H]2C(=O)N(C)[C@H]2C/C=C\CCN(C2=O)[C@@H](Cc2ccc(C)cc2)C(=O)N(C)CC(=O)N[C@@H](CCc2ccc(C(F)(F)F)c(OC)c2)C(=O)N2CC[C@H](OC)[C@H]2C(=O)N(C)C2(CCC2)C(=O)N(C)[C@@H](C2CCCC2)C(=O)N(C)[C@H](C(=O)N(C)C)CC(=O)N1C [PP3247]
Kd ([1]; Single Cycle Kinetics): 0.22 nM
NRAS /KRAS [2, 4]: A (a compound having 10 or more and less than 20 is denoted as A)
HRAS /KRAS (HRAS wild-type protein; [5]): B (a compound having 3 or more and less than 10 is denoted as B)
IC50 ([3]; NCI-H441 cells, 4 days): 5.3 nM

CCC(CC)[C@H]1C(=O)N(C)[C@H](C(=O)N(C)C)CC(=O)N(C)[C@@H](COC)C(=O)N[C@@H]([C@@H](C)CC)C(=O)N2CCC[C@H]2C(=O)N(C)[C@H]2C/C=C\CCN(C2=O)[C@@H](Cc2ccc(C(F)(F)F)cc2)C(=O)N(C)CC(=O)N[C@@H](CCc2ccc(Cl)c(Cl)c2)C(=O)N2C[C@H](OC3CCC3)C[C@H]2C(=O)NC2(CC(C)(C)C2)C(=O)N1C [PP2645]
Kd ([1]; 1:1 binding model): 1.1 nM
NRAS /KRAS [2, 4]: AA (a compound having 20 or more is denoted as AA)
HRAS /KRAS (HRAS wild-type protein; [5]): A (a compound having 10 or more and less than 20 is denoted as A)
IC50 ([3]; NCI-H441 cells, 4 days): 86.7 nM
